Patent US9360486B2, “Allergen fragments” (Biomay AG, priority 2007, dated 2016)
Where “and” joins values, the source holds several entries; their conditions need not be identical. Identical values can stand only once. Entries after “also recorded” stand apart in the source; their conditions may differ.

B1: beta chain: beta chain of naturally processed Amb a 1, N-terminal part, 138 amino acids (protein)
chain: AEGVGEILPSVNETRSLQACEAYNIIDKCWRGKADWENNRQALADCAQGFAKGTYGGKWGDVYTVTSNLDDDVANPKEGTLRFAAAQNRPLWIIFKNDMVINLNQELVVNSDKTIDGRGVKVEIINGGLTLMNVKNIIIHNINIHDVKVLPGGMIKSNDGP
modifications: Amb a 1 beta chain
notes: beta chain of naturally processed Amb a 1, N-terminal part, 138 amino acids
B2: beta-chain: recombinant modified (version 1) Amb a 1.3 beta chain, aa 26-173, 148 amino acids; called beta chain in Example 4 (protein)
beta: AEGVGEILPSVNETRSLQACEAYNIIDKCWRGKADWENNRQALADCAQGFAKGTYGGKWGDVYTVTSNLDDDVANPKEGTLRFAAAQNRPLWIIFKNDMVINLNQELVVNSDKTIDGRGVKVEIINGGLTLMNVKNIIIHNINIHDVK
modifications: Amb a 1 beta chain
B3: alpha chain of Amb a 1.3 (modified version 1): recombinant modified (version 1) Amb a 1.3 alpha chain, aa 174-397, 224 amino acids; called alpha chain in Example 4 (protein)
alpha: VLPGGMIKSNDGPPILRQASDGDTINVAGSSQIWIDHCSLSKSFDGLVDVTLGSTHVTISNCKFTQQSKAILLGADDTHVQDKGMLATVAFNMFTDNVDQRMPRCRFGFFQVVNNNYDRWGTYAIGGSSAPTILCQGNRFLAPDDQIKKNVLARTGTGAAESMAWNWRSDKDLLENGAIFVTSGSDPVLTPVQSAGMIPAEPGEAAIKLTSSAGVLSCRPGAPC
modifications: Amb a 1 alpha chain

Assays:
[1] = tested on: Amb a 1-specific T cell lines (TCL); assay: T cell epitope mapping of Amb a 1.3: proliferation (3H-thymidine uptake) of TCL stimulated with synthetic peptides; type: cell-based, human; details: for No. positive patients SI > 3 / No. positive patients SI > 5 / % (positive patients SI > 3) / % (positive patients SI > 5): TCL from 48 ragweed pollen-allergic patients, peptide 5 μg/ml; for No. positive patients SI > 3 / No. positive patients SI > 5: 3H-thymidine uptake after 48 hrs; for No. positive patients SI > 3 / % (positive patients SI > 3): stimulation index > 3; for No. positive patients SI > 5 / % (positive patients SI > 5): stimulation index > 5; for T cell activating region recognized by % of patients: classes of prevalence referring to SI>5, 48 TCL
Method in brief: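 Amb a 1-specific TCL from ragweed-allergic patients, raised with ragweed extract or rAmb a 1.3, stimulated 48 h with 121 overlapping 12-mer peptides plus one C-terminal 13-mer (9-residue overlap) at 5 μg/ml. Proliferation by 3H-thymidine uptake; SI against the mean cpm of the ten least stimulating peptides, epitope when SI ≥3.0.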

[2] = tested on: IgE of sera from ragweed pollen allergic patients; assay: SDS-PAGE IgE immunoblot with patients' sera; type: binding, human
Protocol: Membrane strips were incubated with sera from ragweed pollen allergic patients (lanes 1-29) or with serum from a non-allergic donor (lane C). Bound IgE was detected with ^125I-labeled goat anti-human IgE. Ragweed pollen-sensitized patients were recruited in Austria (lanes 1-13) or in Italy (lanes 14-29).
The proteins were analyzed via SDS-PAGE using 15% acrylamide gels and 0.1% Coomassie staining with a molecular weight standard RPN 756 (GE Healthcare Life Sciences). Sera from allergic patients were tested for positive IgE-reactivity. rAmb a 1 and rArt v 6 were separated on 15% (w/w) polyacrylamide gels and electroblotted onto a PVDF membrane. After blocking the non-specific protein binding sites with Blocking buffer (per L: 7.5 g Na2HPO4, 1 g NaH2PO4, 5 g BSA and 5 mL Tween 20), the membrane was incubated with patients' sera (diluted 1:10 in Blocking buffer) for more than 6 hours at room temperature. The membrane was washed for at least 30 minutes with Blocking buffer before it was incubated with radiolabeled [^125 I]-anti human IgE (RAST, 5 µCi, MedPro) diluted in Blocking buffer (1:40) overnight at room temperature. After a second 30-minute wash, the membrane was placed onto an imaging plate. The screen was exposed for at least 24 hours and developed using a PhosphoImager Bas-1800 II scanner for detection and the instrument's supporting software (Fujifilm).
nAmb a 1 undergoes spontaneously proteolysis during purification and it is cleaved into two chains, alpha and beta chain, respectively.

[3] = tested on: Amb a 1-specific TCL and TCC; assay: Proliferation of Amb a 1-specific TCL and TCC with allergens and chains; type: cell-based, human; details: modified (version 1) chains of Amb a 1.3
Protocol: Peripheral blood mononuclear cells (PBMC) were isolated from heparinized blood of allergic patients by Ficoll density gradient centrifugation. To generate allergen-specific T cell lines (TCL) and T cell clones (TCC), 1.5×10^6 PBMC were stimulated with optimal doses of ragweed or mugwort extract (4 μg/ml) or rAmb a 1.3 (10 μg/ml) in 24-well flat-bottomed culture plates (Costar, USA). After 5 days human rIL-2 (10 U/ml, Boehringer, Mannheim, Germany) were added and cultures were continued for additional 7 days. Then, T cell blasts were isolated by density centrifugation. The majority of T cell blasts was further expanded with IL-2 and irradiated PBMC. A small number of T cell blasts were used to establish monoclonal T cell cultures by limiting dilution: 0.3 T cells/well were seeded into 96 well round bottom plates (Nunclone) in the presence of 2×10^5 irradiated (60 Gy) PBMC, 0.25% v/v PHA (Gibco, USA) and rIL-2 (4 U/well) in the medium mentioned above. After 14-21 days, growing microcultures were expanded at weekly intervals with irradiated PBMC and rIL-2. The specificity of TCC was assessed in proliferation assays using irradiated allogeneic or HLA-matched PBMC or irradiated EBV-transformed allogeneic B-cells and 5 μg/ml Amb a 1.3. After 48 hours, cellular uptake of tritiated (^3H)-thymidine was performed to measure proliferation in counts per minute (cpm). When the stimulation index (SI; ratio between cpm obtained in cultures containing TCC plus autologous APC plus antigen, and cpm obtained in cultures containing TCC and APC alone) was >10, responses were considered as positive. Allergen-specific TCC were expanded by alternating turns of stimulation with autologous irradiated APC and allergen or with allogeneic feeder cells and rIL-2.
Proliferation and cytokine responses were determined.
When compared with the results of the T cell epitope recognition in Table 3, 45/46 patients (98%) would recognize one or more epitopes in the Amb a 1 alpha-chain. […]

[4] = tested on: IgE of sera from ragweed allergic patients; assay: Human IgE ELISA of purified alpha chain; type: binding; details: modified (version 1) alpha chain of Amb a 1.3; 12 patients (FIG. 19)
Source text: If a peptide of the invention is to be used as a diagnostic reagent, it is not necessary that the peptide or protein has reduced IgE binding activity compared to the native Amb a 1 allergen. IgE binding activity of peptides can be determined by, for example, an enzyme linked immunosorbent assay (ELISA) using, for example, sera obtained from an individual (i.e. an allergic individual) that has been previously exposed to the native Amb a 1. Briefly, a peptide to be tested is coated onto wells of a microtiter plate. After washing and blocking the wells, antibody solution consisting of the serum or plasma of an allergic individual who has been exposed to the peptide being tested or the protein from which it was derived is incubated in the wells. The plasma is generally depleted of IgG before incubation. However, the depletion is not necessary if highly specific anti IgE-antibodies are used. Furthermore, allergic individuals who have not undergone specific immunotherapy have in some cases almost no detectable IgG antibodies specific for the allergen in question. […] The amount of IgE binding is then quantified and compared to the amount of IgE bound by a purified native Amb a 1 protein. Alternatively, the binding activity of a peptide can be determined by Western blot analysis. […] After incubation with the labelled secondary antibody, the amount of IgE bound is then determined and quantified. […]

Row | Molecule | reactivity with T cells isolated from allergic individuals [1] | No. positive patients SI > 3 [1] | No. positive patients SI > 5 [1] | % (positive patients SI > 3) [1] | % (positive patients SI > 5) [1] | also measured
1 | GSTHVTISNCKF (Amb a 1 fragment) [Peptide 68] | reactivity with T cells | 20 | 16 | 41.7% | 33.3% | T cell reactivity with samples from individuals suffering from ragweed pollen allergy [1]: high T cell reactivity; T cell activating region recognized by % of patients [1]: recognized by 33.3%
2 | NVAGSSQIWIDHCSLSKS (Amb a 1 fragment) [Peptide 59-61] | reactivity with T cells |  |  |  |  | T cell activating region recognized by % of patients [1]: recognized by 58.3%
3 | VKVLPGGMIKSN (Amb a 1 fragment) [Peptide 50] | reactivity with T cells | 5 | 4 | 10.4% | 8.3% | 
4 | WRGKADWENNRQ (Amb a 1 fragment) [Peptide 11] |  | 4 | 2 | 8.3% | 4.2% | 
5 | KNDMVINLNQEL (Amb a 1 fragment) [Peptide 33] | reactivity with T cells | 15 | 13 | 31.3% | 27.1% | 
6 | FLAPDDQIKKNV (Amb a 1 fragment) [Peptide 97] | reactivity with T cells | 6 | 4 | 12.5% | 8.3% | 
7 | VKVEIINGGLTL (Amb a 1 fragment) [Peptide 41] | reactivity with T cells | 5 | 1 | 10.4% | 2.1% | 
8 | RCRFGFFQVVNN (Amb a 1 fragment) [Peptide 85] |  | 4 | 1 | 8.3% | 2.1% | 
9 | EGTLRFAAAQNR (Amb a 1 fragment) [Peptide 27] | reactivity with T cells | 5 | 5 | 10.4% | 10.4% | 
10 | LTLMNVKNIIIH (Amb a 1 fragment) [Peptide 44] | reactivity with T cells | 15 | 9 | 31.3% | 18.8% | T cell activating region recognized by % of patients [1]: recognized by 18.8%
11 | B1 |  |  |  |  |  | IgE reactivity of the Amb a 1 chains [2]: strongly recognized; also recorded: contains most of the IgE epitopes of Amb a 1; % of patients whose IgE recognized the chain ([2]; chains of nAmb a 1, sera from Italy, Canada and Austria (FIG. 9)): 90%
12 | B2 |  |  |  |  |  | proliferation, % of the response to Amb a 1 ([3]; 2 TCL with strong reactivity to Amb a 1 (FIG. 20)): 38% and 19%
13 | B3 |  |  |  |  |  | IgE-binding activity in vitro (ELISA) [4]: low/no IgE-binding activity; reaction of 2 TCC specific for epitopes within Amb a 1-alpha [3]: reacted
